SMILES	logP
CN(Cc1ccc([N+](=O)[O-])cc1)N=O	0.82
CN(Cc1cccc(Cl)c1)N=O	1.46
Cc1cccc(CN(C)N=O)c1	1.96
CN(Cc1ccc(F)cc1)N=O	1.67
CN(Cc1ccccc1)N=O	1.55
COc1cccc(CN(C)N=O)c1	1.6
CN(Cc1cccc(C(F)(F)F)c1)N=O	1.99
Cc1ccc(CN(C)N=O)cc1	2.14
CN(Cc1cccc([N+](=O)[O-])c1)N=O	1.17
CN(Cc1ccc(Cl)cc1)N=O	2.19

— the OPERA property sets (Mansouri et al. 2018)
